Results as given in patent publication US4356183A, “Antihypertensive 4-thiazolidinecarboxylic acids (pyridyl derivatives)” (Santen Pharmaceutical Co., Ltd., priority 1978, dated 1982).
Like-named read-outs stand apart in the source and are kept apart here.

What was measured:
[1] = test system: pressor response to angiotensin I; assay: Inhibition of pressor response to angiotensin I in rats after oral administration; assay type: in vivo, rat (male Wistar); conditions: angiotensin I 300 ng/kg i.v.
Experimental: Male Wistar strain rats weighing about 200-300 g were used.
Under ether anesthesia, polyethylene cannulae are inserted into carotid arthery and jugular vein. The cannula to carotid artery is connected to an electric transducer, while the cannula to jugular vein is connected to an apparatus for continuous infusion. After the complete recovery from anesthesia, angiotensin I is infused intravenously in a dose of 300 ng/kg by the apparatus for continuous infusion, and the pressor response is recorded by polygraph (Nihon Koden, RM-150).
The compounds of this invention suspended in 0.5% tragacanth solution are administered orally in a dose of 0.3 ml per 100 g of body weight, and the pressor response to angiotensin I infused intravenously is measured with time.
The inhibitory activity of the compounds against angiotensin I-converting enzyme is expressed as the percent inhibition of pressor response to angiotensin I.

[2] = test system: contractile response to bradykinin (isolated guinea pig ileum); assay: Augmentation of contractile response of isolated guinea pig ileum to bradykinin; assay type: cell-based; conditions: bradykinin 0.005 μg/ml, compound added 5 min before, 30° C., read-out: Bradykinin AC50 (50% augmentation of bradykinin activity inducing the contraction of guinea pig ileum)
Experimental: (§1) Isolated guinea pig ileum was suspended in the organ bath containing 20 ml of Tyrode's solution of 30° C. gassed with 95% O2 +5% CO2. The contraction induced by the addition of angiotensin I (0.1 μg/ml) at intervals of 10 minutes was recorded on a recticorder (Nihon Koden) for 90 seconds using FD pick up (ST-1T-H, Nihon Koden).
(§2) The test compounds were added to the bath 5 minutes before the addition of angiotensin I.
From the fact that kininase II, which destroys bradykinin having contractive action on isolated guinea pig ileum, is thought to be identical with angiotensin I-converting enzyme, augmentation of the contractile response to bradykinin by test compounds was examined by using bradykinin (0.005 μg/ml) in place of angiotensin I according to the above mentioned method.

[3] = test system: contractile response of isolated guinea pig ileum to angiotensin I; assay: Inhibition of contractile response of isolated guinea pig ileum to angiotensin I; assay type: cell-based; conditions: angiotensin I 0.1 μg/ml, compound added 5 min before, 30° C., read-out: Angiotensin I IC50 (50% inhibition of angiotensin I activity inducing the contraction of guinea pig ileum)
Description: As the method of measurement of angiotensin I-converting enzyme activity, bioassay for the contractile response of isolated smooth muscle or the pressor response of normal animals and biochemical assay for the enzyme isolated from lung or other organs of animals are known. The former is found more advantageous than the latter for the examination of the convertion of angiotensin I to angiotensin II in vivo.
In the present study, therefore, we adopted the bioassay for contractile response of isolated guinea pig ileum to angiotensin I.
(§3) Measurement of inhibitory activity of angiotensin I-converting enzyme
as §1, §2
The inhibitory activity of angiotensin I-converting enzyme was calculated by the following formula. [formula] A: contractile intensity of angiotensin I before addition of the compound B: contractile intensity of angiotensin I after addition of the compound

[4] = biological target: T1, angiotensin I-converting enzyme (Oryctolagus cuniculus, UniProt P12822); assay: Inhibition of angiotensin I-converting enzyme by spectrophotometry (HHL substrate); assay type: biochemical; conditions: enzyme from rabbit lung; 5 mM HHL; pH 8.3; 37° C., 30 min
T1 construct: angiotensin I-converting enzyme extracted from rabbit lung; from tissue; host or cells: rabbit lung
T1 sequence (P12822 34-1310): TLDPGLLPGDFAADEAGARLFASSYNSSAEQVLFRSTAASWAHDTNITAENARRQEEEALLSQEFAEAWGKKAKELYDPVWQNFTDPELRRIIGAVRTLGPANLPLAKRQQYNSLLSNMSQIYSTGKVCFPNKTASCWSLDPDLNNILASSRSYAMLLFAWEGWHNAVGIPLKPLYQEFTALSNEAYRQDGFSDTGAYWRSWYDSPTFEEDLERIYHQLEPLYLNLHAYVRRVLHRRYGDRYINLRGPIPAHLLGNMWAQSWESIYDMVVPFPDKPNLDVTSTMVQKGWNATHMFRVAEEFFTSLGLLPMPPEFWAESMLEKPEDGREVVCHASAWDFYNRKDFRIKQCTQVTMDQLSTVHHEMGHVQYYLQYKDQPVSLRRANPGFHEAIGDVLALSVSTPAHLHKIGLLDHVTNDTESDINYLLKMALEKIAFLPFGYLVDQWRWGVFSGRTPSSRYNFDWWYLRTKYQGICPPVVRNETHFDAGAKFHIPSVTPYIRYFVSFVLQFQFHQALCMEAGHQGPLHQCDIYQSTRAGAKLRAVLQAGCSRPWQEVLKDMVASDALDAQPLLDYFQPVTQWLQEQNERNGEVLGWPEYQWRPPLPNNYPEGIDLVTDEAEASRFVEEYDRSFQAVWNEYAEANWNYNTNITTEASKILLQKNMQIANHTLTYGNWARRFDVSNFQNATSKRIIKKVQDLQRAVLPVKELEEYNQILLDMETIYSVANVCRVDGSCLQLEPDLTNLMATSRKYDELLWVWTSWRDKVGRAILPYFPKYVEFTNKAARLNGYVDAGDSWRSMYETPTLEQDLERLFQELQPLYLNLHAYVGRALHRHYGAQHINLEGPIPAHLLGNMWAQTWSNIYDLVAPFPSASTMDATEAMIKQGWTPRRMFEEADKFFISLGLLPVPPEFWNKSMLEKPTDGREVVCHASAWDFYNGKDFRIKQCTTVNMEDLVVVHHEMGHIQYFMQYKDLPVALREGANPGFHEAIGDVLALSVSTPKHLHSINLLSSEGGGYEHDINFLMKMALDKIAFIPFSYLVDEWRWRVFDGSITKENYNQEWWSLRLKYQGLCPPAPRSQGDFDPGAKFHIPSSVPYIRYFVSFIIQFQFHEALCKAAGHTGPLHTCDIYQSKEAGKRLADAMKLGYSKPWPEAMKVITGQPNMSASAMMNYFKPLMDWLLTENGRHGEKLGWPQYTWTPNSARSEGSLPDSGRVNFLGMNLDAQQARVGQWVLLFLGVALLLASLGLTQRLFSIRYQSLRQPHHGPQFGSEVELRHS
Experimental: That is, the absorbance of hippuric acid was measured, which is liberated by incubating hippuryl-L-histidyl-L-leucine (HHL) as substrate in the presence of angiotensin I-converting enzyme extracted from rabbit lung.
as §3
The reaction mixture is as follows:
100 mM phosphate buffer (pH 8.3)
10^-3 ~10^-9 M enzyme inhibitor
0.25 ml of the above mixture was incubated at 37° C. for 30 minutes and the reaction was stopped by adding 0.25 ml of 1 N hydrochloric acid. To this solution, 1.5 ml of ethyl acetate was added in order to extract hippuric acid. 1.0 ml of ethyl acetate layer was collected and evaporated to dryness, and the residue obtained was dissolved in 1.0 ml of water.
The inhibitory activity of angiotensin I-converting enzyme was calculated by the following formula: [formula]

Structure (SMILES) | AC50 ([2]; Cavia porcellus) | IC50 ([3]; Cavia porcellus) | IC50 [4] | further results
C[C@H](CS)C(=O)N1C(C2CCCCC2)SC[C@H]1C(=O)O (stereo partly shown) [Compound 4] | 2 nM | 50 nM | 120 nM | Inhibition (%) of pressor response to angiotensin I, 5 min ([1]; 5 min, dose: 3, 45, 49 1.8 mg/kg, 4, 46 1.3, 50 1.4, 76 2.0, 77 1.5): 46.7%; Inhibition (%) of pressor response to angiotensin I, 15 min ([1]; 15 min, dose: 3, 45, 49 1.8 mg/kg, 4, 46 1.3, 50 1.4, 76 2.0, 77 1.5): 46.5%; Inhibition (%) of pressor response to angiotensin I, 25 min ([1]; 25 min, dose: 3, 45, 49 1.8 mg/kg, 4, 46 1.3, 50 1.4, 76 2.0, 77 1.5): 37.2%; Inhibition (%) of pressor response to angiotensin I, 35 min ([1]; 35 min, dose: 3, 45, 49 1.8 mg/kg, 4, 46 1.3, 50 1.4, 76 2.0, 77 1.5): 32.2%; Inhibition (%) of pressor response to angiotensin I, 45 min ([1]; 45 min, dose: 3, 45, 49 1.8 mg/kg, 4, 46 1.3, 50 1.4, 76 2.0, 77 1.5): 28.8%; Inhibition (%) of pressor response to angiotensin I, 55 min ([1]; 55 min, dose: 3, 45, 49 1.8 mg/kg, 4, 46 1.3, 50 1.4, 76 2.0, 77 1.5): 27.5%; Inhibition (%) of pressor response to angiotensin I, 65 min ([1]; 65 min, dose: 3, 45, 49 1.8 mg/kg, 4, 46 1.3, 50 1.4, 76 2.0, 77 1.5): 27.5%; Inhibition (%) of pressor response to angiotensin I, 75 min ([1]; 75 min, dose: 3, 45, 49 1.8 mg/kg, 4, 46 1.3, 50 1.4, 76 2.0, 77 1.5): 13.8%; Inhibition (%) of pressor response to angiotensin I, 85 min ([1]; 85 min, dose: 3, 45, 49 1.8 mg/kg, 4, 46 1.3, 50 1.4, 76 2.0, 77 1.5): 14.5%; Inhibition (%) of pressor response to angiotensin I, 95 min ([1]; 95 min, dose: 45, 49 1.8 mg/kg, 4, 46 1.3, 50 1.4, 76 2.0, 77 1.5): 10.3%
O=C(O)[C@@H]1CSC(c2ccc(O)c(O)c2)N1C(=O)CCS (stereo partly shown) [Compound 58] | 5.8 nM | 520 nM | 2600 nM | 
COc1cc(C2SC[C@@H](C(=O)O)N2C(=O)[C@H](C)CS)ccc1O (stereo partly shown) [Compound 79] | 3.2 nM | 210 nM | 1300 nM | 
C[C@H](CS)C(=O)N1CSC[C@H]1C(=O)O [Compound 96, reference compound] | 2.6 nM | 170 nM | 260 nM | 
O=C(O)[C@@H]1CSC(c2ccccc2)N1C(=O)CCS (stereo partly shown) [Compound 16] | 2.6 nM | 240 nM | 450 nM | 
COc1cc(C2SC[C@@H](C(=O)O)N2C(=O)[C@H](C)CS)cc(OC)c1OC (stereo partly shown) [Compound 71] | 9.4 nM | 410 nM | 390 nM | 
COc1ccc(C2SC[C@@H](C(=O)O)N2C(=O)CCS)c(O)c1 (stereo partly shown) [Compound 75] | 3.1 nM | 140 nM | 200 nM | 
C[C@H](CS)C(=O)N1C(c2ccc3c(c2)OCO3)SC[C@H]1C(=O)O (stereo partly shown) [Compound 81] | 0.94 nM | 140 nM | 240 nM | 
C[C@H](CS)C(=O)N1C(Cc2ccccc2)SC[C@H]1C(=O)O (single isomer, unassigned) [Compound 10b] |  |  | 310 nM | AC50 [2]: 10 nM; IC50 [3]: 580 nM
O=C(O)[C@@H]1CSC(CCS)N1C(=O)CCS (single isomer, unassigned) [Compound 6a] |  | 410 nM | 650 nM | AC50 [2]: 15 nM
COc1ccc(C2SC[C@@H](C(=O)O)N2C(=O)[C@H](C)CS)cc1 (stereo partly shown) [Compound 68] | 2.1 nM | 88 nM | 750 nM | 
C[C@H](CS)C(=O)N1C(c2ccncc2)SC[C@H]1C(=O)O (stereo partly shown) [Compound 95] | 3.1 nM | 83 nM | 110 nM | 
Cc1ccc(C2SC[C@@H](C(=O)O)N2C(=O)[C@H](C)CS)cc1 (stereo partly shown) [Compound 22] | 3.9 nM | 170 nM | 540 nM | 
C[C@H](CS)C(=O)N1C(c2cccc3ccccc23)SC[C@H]1C(=O)O (stereo partly shown) [Compound 83] | 13 nM | 360 nM | 1300 nM | 
O=C(O)[C@@H]1CSC(c2cccc(O)c2)N1C(=O)CCS (stereo partly shown) [Compound 52] | 1.5 nM | 71 nM | 210 nM | 
C[C@H](CS)C(=O)N1C(CCS)SC[C@H]1C(=O)O (single isomer, unassigned) [Compound 8a] | 1.4 nM | 85 nM | 250 nM | 
O=C(O)[C@@H]1CSC(c2ccccc2)N1C(=O)CS (stereo partly shown) [Compound 12] | 19 nM | 900 nM | 13000 nM | 
C[C@H](CS)C(=O)N1C(c2cccnc2)SC[C@H]1C(=O)O (stereo partly shown) [Compound 93] | 2.9 nM | 140 nM | 840 nM | 
Cc1ccc(C2SC[C@@H](C(=O)O)N2C(=O)[C@H](C)CS)o1 (stereo partly shown) [Compound 87] | 2.6 nM | 460 nM | 730 nM | 
C[C@H](CS)C(=O)N1C(Cc2ccccc2)SC[C@H]1C(=O)O (single isomer, unassigned) [Compound 10a] | 13 nM | 810 nM | 2800 nM | 
O=C(O)[C@@H]1CSC(CCS)N1C(=O)CCS (single isomer, unassigned) [Compound 6b] |  |  | 370 nM | AC50 [2]: 3.7 nM; IC50 [3]: 300 nM
O=C(O)[C@@H]1CSC(c2ccc(O)cc2)N1C(=O)CCS (stereo partly shown) [Compound 56] | 5.5 nM | 460 nM | 1200 nM | 
